According to patent US20050048508A1, “Trehalose receptor and method for detecting trehalose with the same” (KABUSHIKI KAISHA HAYASHIBARA SEIBUTSU KAGAKU KENKYUJO, priority 2002, published 2005):
Residues, ends and D or L forms follow the SMILES beside them.

The compounds below were run against T1, T1R3 with G protein α-subunits (α15 and α16/Z chimeric protein) (Mus musculus, UniProt Q925D8, I706N) (assay: Intracellular calcium ion assay, 293 cells coexpressing G protein α-subunits and T1R3 (trehalose receptor)). Settings: Table 4: sweet taste substances on cells coexpressing G protein α-subunits and T1R3, measured similarly as in Example 4.
T1 construct: expressed in transfected cells; host or cells: 293 cells, RCB 1637 (human embryonic kidney)
T1 sequence (Q925D8 21-858 I706N): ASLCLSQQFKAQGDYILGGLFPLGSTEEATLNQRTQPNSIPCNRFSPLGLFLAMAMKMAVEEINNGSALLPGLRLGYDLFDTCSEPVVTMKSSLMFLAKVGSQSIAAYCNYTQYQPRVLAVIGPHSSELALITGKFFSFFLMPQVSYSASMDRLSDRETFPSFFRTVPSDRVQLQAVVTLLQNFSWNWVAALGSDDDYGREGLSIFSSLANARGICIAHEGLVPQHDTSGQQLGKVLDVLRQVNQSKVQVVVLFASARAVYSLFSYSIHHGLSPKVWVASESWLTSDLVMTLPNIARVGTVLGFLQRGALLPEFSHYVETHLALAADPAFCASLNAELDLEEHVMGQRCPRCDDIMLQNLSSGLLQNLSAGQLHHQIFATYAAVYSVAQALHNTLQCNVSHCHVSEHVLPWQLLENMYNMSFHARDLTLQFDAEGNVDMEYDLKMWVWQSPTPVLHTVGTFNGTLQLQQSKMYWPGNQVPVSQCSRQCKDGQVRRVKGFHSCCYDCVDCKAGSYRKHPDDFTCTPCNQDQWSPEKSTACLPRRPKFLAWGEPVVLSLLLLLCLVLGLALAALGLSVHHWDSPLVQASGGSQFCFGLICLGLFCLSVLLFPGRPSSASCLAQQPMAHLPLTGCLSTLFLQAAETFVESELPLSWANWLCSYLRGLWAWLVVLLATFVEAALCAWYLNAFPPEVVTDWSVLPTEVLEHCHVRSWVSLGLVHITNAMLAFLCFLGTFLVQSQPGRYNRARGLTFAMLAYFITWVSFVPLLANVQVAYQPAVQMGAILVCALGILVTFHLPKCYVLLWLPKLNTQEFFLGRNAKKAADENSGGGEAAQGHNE
Type: cell-based
Procedure: The coexpression vector for the G protein α-subunit α15 and the G protein α16/Z chimeric protein (hereinafter designated as “G protein α-subunits”) obtained in Example 1-3 was gene transferred to 293 cells, RCB 1637, a human embryonic kidney cell line, available from the Riken Bioresource Center, Ibaraki, Japan, by conventional lipofection. The gene transferred cells were suspended in Dulbecco's Modified Eagle's Medium (D-MEM) supplemented with 1 mg/L of “PUROMYCIN”, a trade mane of puromycin commercialized by Edge Biosystems, MD, USA, and 10% (v/v) of fetal calf serum to give a cell density of 2×10^6 cells/ml and cultured in a plastic petri dish for cell culture. After 10 to 14 days of incubation, a puromycin-resistant cell colony was collected and confirmed its production of the G protein α-subunit proteins with an index of their mRNA level by conventional RT-PCR. Thus, a cell line capable of expressing the G protein α-subunit proteins was established. To the cells were gene transferred an expression vector for the sweet taste receptor protein T1R1, T1R2, or T1R3 in Example 2-2; or a coexpression vector for a pair of T1R1 and T1R2, T1R1 and T1R3, or T1R2 and T1R3 by conventional lipofection. The resulting cells were suspended in D-MEM supplemented with 1 mg/L of “PUROMYCIN”, 500 mg/L of “GENETICIN”, and 10% (v/v) of fetal calf serum and cultured in a plastic petri dish for cell culture. After 10 to 14 days of incubation, a cell colony resistant to both of the above drugs was collected and confirmed that the transferred gene had been expressed intracellularly as expected by conventional RT-PCR at a mRNA level. Thus, a cell, which had coexpressed the desired G proteins and sweet taste receptors, was obtained. As a control, a cell, into which an expression vector with no G protein α-subunit protein gene or sweet taste receptor protein gene, was prepared and used.
The captioned reactivity test was conducted according to a conventional intracellular calcium ion assay: 293 Cells prepared in Example 3, capable of coexpressing the G protein α-subunits and the sweet taste receptor(s), were cultured in a plastic petri dish for cell culture until reaching its confluent phase. Thereafter, the cells were detached from the inner surface of the petri dish with a 0.05% (v/v) trypsin solution and a 0.53 mM EDTA solution, suspended in D-MEM supplemented with 10% (v/v) fetal calf serum to give a cell density of 1×10^6 cells/ml, and allowed to intake “FLUO-4. AM”, a reagent for detecting intracellular calcium ion commercialized by Molecular Probes Inc., Ore., USA, by adding to the cell suspension to give a final concentration of 2 μM and incubating the cells at 37 ° C. for 30 to 90 min. The resulting cells were washed with a buffer for detecting calcium ion, which contained 10 mM HEPES (pH 7.4), 130 mM sodium chloride, 5.4 mM potassium chloride, 2 mM calcium chloride, 1 mM magnesium chloride, 5.5 mM D-glucose, 0.1% (v/v) calf serum albumin, and 1 mM sodium pyruvate to remove the reagent remained extracellularly; suspended in a fresh preparation of the same buffer to give a cell density of 2.67 ×10^7 cells/ml; filtered with a membrane with a pore size of 100 μm mesh; and allowed to stand at 25° C. for 30 min. Two milliliters of the resultant cell suspension was injected into a glass cuvette, commercialized by Hitachi, Ltd., Tokyo, Japan, and analyzed on “HITACHI 650-40”, a fluorescence spectrophotometer commercialized by Hitachi, Ltd., Tokyo, Japan. […]

| Influx of calcium ion | SMILES |
| --- | --- |
| Negative | C[C@H](N)C(=O)O [Alanine] |
| Negative | COC(=O)[C@H](Cc1ccccc1)NC(=O)[C@@H](N)CC(=O)O [Aspartame] (HELM PEPTIDE1{D.F.[CO[*:1]]}$$$$V2.0) |
| Negative | OC[C@@H](O)[C@@H](O)CO [Erythritol] |
| Negative | O=C(CO)[C@@H](O)[C@H](O)[C@H](O)CO [Fructose] |
| Negative | O=C[C@H](O)[C@@H](O)[C@@H](O)[C@H](O)CO [Galactose] |
| Negative | NCC(=O)O [L-Glycine] |
| Negative | OC[C@@H](O)[C@@H](O[C@H]1O[C@H](CO)[C@@H](O)[C@H](O)[C@H]1O)[C@H](O)[C@@H](O)CO [Maltitol] |
| Negative | OC[C@H]1O[C@H](O[C@]2(CCl)O[C@H](CCl)[C@@H](O)[C@@H]2O)[C@H](O)[C@@H](O)[C@H]1Cl [Sucralose] |
